Laboratory results reported in US10941114B2, “Small molecule lipid II inhibitors” (University Of Maryland, Baltimore, priority 2015, dated 2021).
Counter-ions that a name gives are not always drawn. Like-named read-outs stand apart in the source and are kept apart here.

Experiments:
Enterococcus faecalis = experiment: Antibacterial activity assay (MIC, broth dilution); type: cell-based; details: Enterococcus faecalis
[1] = Maximum Tolerated Dose (MTD) and in vivo toxicity at the MTD; details: mouse, in vivo, ip
in vivo = details: male, iv, […]
CYP2C19 = CYP2C19 (Homo sapiens, UniProt P33261); experiment: P450 enzyme inhibition (IC50 fluorescence); type: in vitro ADME; details: substrate CEC: 3-cyano-7-ethoxycoumarin
Chain of CYP2C19 (P33261 whole entry): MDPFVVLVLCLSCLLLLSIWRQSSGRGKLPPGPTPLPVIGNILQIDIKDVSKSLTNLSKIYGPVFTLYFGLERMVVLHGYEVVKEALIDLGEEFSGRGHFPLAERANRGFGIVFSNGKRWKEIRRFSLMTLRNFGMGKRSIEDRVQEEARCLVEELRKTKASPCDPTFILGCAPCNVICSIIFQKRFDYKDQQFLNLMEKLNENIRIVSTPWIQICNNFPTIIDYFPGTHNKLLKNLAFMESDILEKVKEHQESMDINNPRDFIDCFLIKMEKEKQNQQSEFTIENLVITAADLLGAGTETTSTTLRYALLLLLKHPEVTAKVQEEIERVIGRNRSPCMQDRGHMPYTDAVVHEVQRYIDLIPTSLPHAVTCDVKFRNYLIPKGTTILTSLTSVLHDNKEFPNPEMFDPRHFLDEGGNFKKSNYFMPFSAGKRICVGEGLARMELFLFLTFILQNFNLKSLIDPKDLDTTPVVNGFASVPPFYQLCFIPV

CYP3A4 = CYP3A4 (Homo sapiens, UniProt P08684); experiment: P450 enzyme inhibition (IC50 fluorescence); type: in vitro ADME
Chain of CYP3A4 (P08684 whole entry): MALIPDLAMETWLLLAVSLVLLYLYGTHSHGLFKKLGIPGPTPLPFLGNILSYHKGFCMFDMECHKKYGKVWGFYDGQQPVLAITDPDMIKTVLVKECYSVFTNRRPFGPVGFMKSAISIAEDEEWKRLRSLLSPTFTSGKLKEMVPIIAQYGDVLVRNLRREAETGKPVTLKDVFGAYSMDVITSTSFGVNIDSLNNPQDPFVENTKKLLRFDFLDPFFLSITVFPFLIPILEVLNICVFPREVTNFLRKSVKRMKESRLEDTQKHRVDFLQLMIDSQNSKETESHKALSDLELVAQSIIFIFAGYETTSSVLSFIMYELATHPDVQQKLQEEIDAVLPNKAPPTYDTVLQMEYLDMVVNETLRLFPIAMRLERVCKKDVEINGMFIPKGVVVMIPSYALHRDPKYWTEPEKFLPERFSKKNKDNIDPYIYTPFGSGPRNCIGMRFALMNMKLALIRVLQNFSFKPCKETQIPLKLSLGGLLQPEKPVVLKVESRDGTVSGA

[2] = Pharmacokinetic study in mice (plasma concentration by LC/MS/MS)
[3] = Plasma / serum stability (LC/MS/MS); type: in vitro ADME; details: 10 μg/mL, 50% serum
[4] = CD1, mouse, in vivo
Enterococcus faecium = experiment: Antibacterial activity assay (MIC, broth dilution); type: cell-based; parameters: Bacterial Killing E. faecium: unit: ug/mL; details: for MIC: Enterococcus faecium
Outline: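 Broth dilution MIC per CLSI (M07-A10) in cation-adjusted Mueller Hinton broth with 10% brain-heart infusion; MIC is the lowest concentration preventing visible growth, in μg/mL. Some compounds were run by broth microdilution.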

CYP2D6 = CYP2D6 (Homo sapiens, UniProt P10635); experiment: P450 enzyme inhibition (IC50 fluorescence); type: in vitro ADME; details: substrate AMMC
Chain of CYP2D6 (P10635 whole entry): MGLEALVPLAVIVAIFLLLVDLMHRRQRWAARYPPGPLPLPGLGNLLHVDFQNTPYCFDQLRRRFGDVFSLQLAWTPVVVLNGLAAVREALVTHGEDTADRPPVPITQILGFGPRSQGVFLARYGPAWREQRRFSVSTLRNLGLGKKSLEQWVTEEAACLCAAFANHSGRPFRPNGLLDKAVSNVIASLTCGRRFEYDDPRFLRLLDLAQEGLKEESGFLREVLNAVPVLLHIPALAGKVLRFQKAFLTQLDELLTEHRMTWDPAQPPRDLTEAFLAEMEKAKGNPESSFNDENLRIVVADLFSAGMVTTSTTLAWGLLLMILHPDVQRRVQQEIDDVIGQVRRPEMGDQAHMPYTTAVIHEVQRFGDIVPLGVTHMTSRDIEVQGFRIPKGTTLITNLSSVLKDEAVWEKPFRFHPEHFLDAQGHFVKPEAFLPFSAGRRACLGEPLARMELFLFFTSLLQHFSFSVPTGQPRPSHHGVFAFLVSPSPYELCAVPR

Escherichia coli = experiment: Antibacterial activity assay (MIC, broth dilution); type: cell-based; details: determined as in Example 1E (MIC)
HeLa cells = experiment: Cytotoxicity testing (CC50, MTS assay)
Staphylococcus aureus = experiment: Antibacterial activity assay (MIC, broth dilution); type: cell-based; parameters: S. aureus Killing / Bacterial Killing S. aureus: unit not given here; details: determined as in Example 1E (MIC)
[5] = IV administration, single dose […], mice (n=3)
[6] = PO administration, single oral dose 5 mg/kg, mice (n=3)
[7] = comparator values repeated from Table 4 (IV, […])

CN(C)c1ccc(/C=C/c2cc(-c3ccc(Br)cc3)cc(-c3ccc(Br)cc3)[o+]2)cc1 [Compound 6jc48-1, (E)-2,4-bis(4-bromophenyl)-6-(4-(dimethylamino)styryl)pyrylium boron tetrafluoride salt]
MIC (Enterococcus faecalis; MIC quoted with the macromolecular synthesis data (FIG. 11), strain not given, MMS run on E. faecalis EF1509, read-out: MIC): 4 µg/mL | MIC (Enterococcus faecalis; cation-adjusted Mueller Hinton broth, 10% BHI, read-out: MIC E. faecalis 51299): 4 µg/mL | MIC (Enterococcus faecalis; cation-adjusted Mueller Hinton broth, 10% BHI, read-out: MIC E. faecalis 51575): 2 µg/mL | MIC (Enterococcus faecalis; cation-adjusted Mueller Hinton broth, 10% BHI, read-out: MIC E. faecalis C99707): 2 µg/mL | MIC (Enterococcus faecalis; clinical isolates sensitive to linezolid and daptomycin, n = 5, read-out: MIC E. faecalis* clinical isolates): 4 to 16 µg/mL | MTD [1]: ≤ 100 mg/kg | Vd (in vivo; CD1, mouse, plasma): ~23 L/kg | Vd (in vivo; mouse, in vivo): 22.8 ± 2.9 L/kg | IC50 (CYP2C19): > 10 µM | IC50 (CYP3A4; substrate BFC: 7-benzoyloxy-4-triflluoromethyl coumarin, read-out: P450 enzyme inhibition (IC50 fluorescence) CYP3A4/BFC): 1.3 µM | IC50 (CYP3A4; substrate DBF: dibenzylfluorescein, read-out: P450 enzyme inhibition (IC50 fluorescence) CYP3A4/DBF): > 10 µM | AUClast/D [2, 5]: 536 ± 47 mg·h/mL | Cl_obs [2, 5]: 23.6 ± 1.7 mL/min/kg | T1/2 [2, 5]: 13.3 ± 1.8 h | AUCInf [2, 6]: 90 ng·h/mL | AUClast [2, 6]: 46.9 ng·h/mL | Cmax [2, 6]: 19.1 ng/mL | Finf (inferred bioavailability) [2, 6]: 2.54% | Flast (bioavailability at last time point) [2, 6]: 1.9% | T1/2 [2, 6]: 2.78 h | Cl—obs [2, 7]: 23.6 ± 1.7 mL/min/kg | T1/2 [2, 7]: 13.3 ± 1.8 h | stability in serum ([3]; after 2 hours): stable after 2 hours in serum | compound remaining ([3]; after 19 hours): 46% | AUCextrap ([4]; po, 5 mg/kg): 48.6% | Vss_obs ([4]; po, 5 mg/kg): 1.75 L/kg | Volume of distribution at equilibrium (Vs) ([4]; male, iv, […]): 22.8 | Vss_obs ([4]; male, iv, […]): 22.8 ± 2.9 L/kg | MIC (Enterococcus faecium; cation-adjusted Mueller Hinton broth, 10% BHI, read-out: MIC E. faecium C110914): 4 µg/mL | MIC (Enterococcus faecium; cation-adjusted Mueller Hinton broth, 10% BHI, read-out: MIC E. faecium IH79985): 8 µg/mL | MIC (Enterococcus faecium; cation-adjusted Mueller Hinton broth, 10% BHI, read-out: MIC E. faecium S1559): 2 µg/mL | MIC (Enterococcus faecium; clinical isolates sensitive to linezolid and daptomycin, n = 5, read-out: MIC E. faecium* clinical isolates): 4 to 16 µg/mL | Bacterial Killing E. faecium (Enterococcus faecium; determined as in Example 1E (MIC)): 4 | IC50 (CYP2D6): > 10 µM | Bacterial Killing E. coli (Escherichia coli): >64 | reduction in cytotoxicity compared to the parent BAS00127538 (HeLa cells): 50 fold | Bacterial Killing S. aureus (Staphylococcus aureus): 16
